Values quoted from earlier work in patent US6751290B2, “Radiographic assessment of tissue after exposure to a compound” (Veritas Pharmaceuticals, Inc., priority 1998, dated 2004).

Details: experimental logP values, commonly used non-ionic radiographic contrast agents (Hansch et al. 1995)

| logP | Compound |
| --- | --- |
| −3.05 | CC(=O)N(CC(O)CO)c1c(I)c(C(=O)NCC(O)CO)c(I)c(C(=O)NCC(O)CO)c1I (stereo not drawn) [Iohexol] |
| −2.05 | COCC(=O)Nc1c(I)c(C(=O)NCC(O)CO)c(I)c(C(=O)N(C)CC(O)CO)c1I (stereo not drawn) [Iopromide] |
| −1.86 | CC(=O)Nc1c(I)c(C(=O)N[C@H]2C(O)O[C@H](CO)[C@@H](O)[C@@H]2O)c(I)c(N(C)C(C)=O)c1I (stereo partly drawn) [Metrizamide] |
